This passage reports IC50 results from ChEMBL document CHEMBL1143204, “Syntheses and in vitro evaluation of arylsulfone-based MMP inhibitors with heterocycle-derived zinc-binding groups (ZBGs)” (Bioorg Med Chem Lett, 2008).

For assay [1], the target named is Collagenase 3 (Homo sapiens, UniProt P45452). Description: Inhibition of MMP13.
The target in assay [2] is Stromelysin-1 (Homo sapiens, UniProt P08254). Description: Inhibition of MMP3.
In assay [3] the target is T1, Interstitial collagenase (Homo sapiens, UniProt P03956).
T1 sequence (P03956 whole entry): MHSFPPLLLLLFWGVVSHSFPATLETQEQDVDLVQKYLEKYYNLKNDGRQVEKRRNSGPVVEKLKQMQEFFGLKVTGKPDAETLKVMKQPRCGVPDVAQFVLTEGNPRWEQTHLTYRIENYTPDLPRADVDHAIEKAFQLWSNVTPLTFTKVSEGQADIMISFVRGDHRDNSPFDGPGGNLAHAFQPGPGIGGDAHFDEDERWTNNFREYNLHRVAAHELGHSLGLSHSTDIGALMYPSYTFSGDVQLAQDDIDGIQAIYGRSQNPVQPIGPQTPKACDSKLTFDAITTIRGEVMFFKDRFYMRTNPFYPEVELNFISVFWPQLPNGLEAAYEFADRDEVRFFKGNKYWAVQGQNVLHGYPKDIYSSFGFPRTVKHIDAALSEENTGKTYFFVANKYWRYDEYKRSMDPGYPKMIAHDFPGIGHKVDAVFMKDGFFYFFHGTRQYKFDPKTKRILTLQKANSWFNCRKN
Put plainly: Inhibition of MMP1.

The target of assay [4] is 72 kDa type IV collagenase (Homo sapiens, UniProt P08253). Description: Inhibition of MMP2.
Sequence of 72 kDa type IV collagenase (P08253 whole entry): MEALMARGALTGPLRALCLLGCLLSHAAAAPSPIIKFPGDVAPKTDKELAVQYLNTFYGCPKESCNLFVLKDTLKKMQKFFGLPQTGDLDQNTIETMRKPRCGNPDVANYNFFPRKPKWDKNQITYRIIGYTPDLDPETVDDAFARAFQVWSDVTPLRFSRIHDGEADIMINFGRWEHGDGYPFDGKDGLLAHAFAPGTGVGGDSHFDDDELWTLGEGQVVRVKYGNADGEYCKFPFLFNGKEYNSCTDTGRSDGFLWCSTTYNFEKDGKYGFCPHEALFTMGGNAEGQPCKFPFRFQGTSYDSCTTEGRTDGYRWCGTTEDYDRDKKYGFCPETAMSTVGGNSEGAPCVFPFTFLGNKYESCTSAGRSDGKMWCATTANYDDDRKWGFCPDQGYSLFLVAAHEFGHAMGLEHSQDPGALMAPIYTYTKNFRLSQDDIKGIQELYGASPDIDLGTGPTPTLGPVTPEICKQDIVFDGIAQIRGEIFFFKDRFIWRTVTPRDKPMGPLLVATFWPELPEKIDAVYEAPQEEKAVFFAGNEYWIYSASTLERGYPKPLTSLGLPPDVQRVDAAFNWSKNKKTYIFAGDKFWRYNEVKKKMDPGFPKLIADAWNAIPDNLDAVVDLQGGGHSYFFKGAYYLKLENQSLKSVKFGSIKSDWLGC
In assay [5] the target is Matrix metalloproteinase-9 (Homo sapiens, UniProt P14780). Put plainly: Inhibition of MMP9.
Sequence of Matrix metalloproteinase-9 (P14780 whole entry): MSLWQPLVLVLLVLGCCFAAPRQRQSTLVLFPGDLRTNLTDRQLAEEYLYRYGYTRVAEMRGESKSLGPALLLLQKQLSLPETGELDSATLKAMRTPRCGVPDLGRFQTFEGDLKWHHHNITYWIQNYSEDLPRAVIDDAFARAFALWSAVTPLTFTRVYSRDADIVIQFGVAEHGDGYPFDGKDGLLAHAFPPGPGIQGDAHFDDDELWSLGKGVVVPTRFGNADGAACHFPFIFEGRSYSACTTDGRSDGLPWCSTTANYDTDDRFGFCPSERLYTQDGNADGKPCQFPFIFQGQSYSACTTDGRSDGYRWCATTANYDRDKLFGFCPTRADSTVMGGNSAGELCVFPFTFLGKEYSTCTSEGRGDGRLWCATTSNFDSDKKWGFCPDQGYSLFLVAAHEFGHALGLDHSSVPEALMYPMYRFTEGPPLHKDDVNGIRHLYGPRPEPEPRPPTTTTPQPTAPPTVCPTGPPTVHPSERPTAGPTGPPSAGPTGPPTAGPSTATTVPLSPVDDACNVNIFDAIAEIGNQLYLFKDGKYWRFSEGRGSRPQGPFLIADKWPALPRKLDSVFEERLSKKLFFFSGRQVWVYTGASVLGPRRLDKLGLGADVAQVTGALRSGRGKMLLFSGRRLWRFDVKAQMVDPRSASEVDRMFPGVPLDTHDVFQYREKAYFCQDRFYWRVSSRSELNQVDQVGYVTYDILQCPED

Broadly, the IC50 is the midpoint of a concentration-inhibition curve. A high value points to lower potency.

A value given as a limit tells only on which side of the number the result lay.

Sequence of Stromelysin-1 (P08254 whole entry): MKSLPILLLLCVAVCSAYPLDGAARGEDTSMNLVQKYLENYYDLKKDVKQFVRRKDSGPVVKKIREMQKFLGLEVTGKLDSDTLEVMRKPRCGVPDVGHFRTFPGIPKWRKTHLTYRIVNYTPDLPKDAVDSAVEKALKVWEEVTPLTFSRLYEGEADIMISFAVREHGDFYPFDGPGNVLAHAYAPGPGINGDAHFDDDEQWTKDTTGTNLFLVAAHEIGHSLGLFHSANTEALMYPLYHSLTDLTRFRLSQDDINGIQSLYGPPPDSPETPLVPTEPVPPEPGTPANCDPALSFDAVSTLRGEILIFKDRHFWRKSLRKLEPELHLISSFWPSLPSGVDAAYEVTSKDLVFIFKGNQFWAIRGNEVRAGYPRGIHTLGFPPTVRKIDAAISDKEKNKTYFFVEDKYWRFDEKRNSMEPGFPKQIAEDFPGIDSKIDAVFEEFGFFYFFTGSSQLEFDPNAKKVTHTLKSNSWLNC

`O=c1c(O)cccn1CS(=O)(=O)c1ccc(Oc2ccc(OC(F)(F)F)cc2)cc1`: the IC50 in assay [1] is 7.3 nM; in assay [2], 203 nM; in assay [3], above 1000 nM; in assay [4] it was 12.6 nM; in assay [5], 4 nM.

For `COc1ccc(-c2ccc(S(=O)(=O)C3CCCCN(O)C3=O)cc2)cc1` (stereo unspecified), the IC50 in assay [4] and in assay [5] was above 1000 nM in each case.

For `COc1ccc(Oc2ccc(S(=O)(=O)Cc3cccn(O)c3=O)cc2)cc1`, the IC50 in assay [1] was 13.4 nM; in assay [2] it was 308 nM; in assay [3], above 1000 nM.

Regarding `COc1ccc(Oc2ccc(S(=O)(=O)Cn3cccc(O)c3=O)s2)cc1`, the IC50 in assay [4] stood at 72 nM; in assay [5], 13.9 nM.

As to `O=C1C(S(=O)(=O)c2ccc(Oc3ccc(OC(F)(F)F)cc3)cc2)CCCCN1O` (stereo unspecified), the IC50 in assay [4] was 59.4 nM; in assay [5] it was 21.5 nM.

In the case of `O=c1c(O)cccn1CS(=O)(=O)c1ccc(Oc2ccc(Cl)cc2)cc1`, the IC50 in assay [4] was found to be 10.6 nM; in assay [5], 16.4 nM.

Turning to `Cc1ccc(S(=O)(=O)Cn2cccc(O)c2=O)cc1`, half-maximal inhibition in assay [5] (IC50) required 809 nM.

As for `COc1ccc(-c2ccc(S(=O)(=O)Cn3cccc(O)c3=O)cc2)cc1`, the IC50 in assay [4] and in assay [5] was above 1000 nM in each case.

Turning to `COc1ccc(Oc2ccc(S(=O)(=O)C3CCCCCN(O)C3=O)cc2)cc1` (stereo unspecified), the IC50 in assay [4] and in assay [5] was above 1000 nM in each case.

In the case of `O=C1[C@H](CS(=O)(=O)c2ccc(Oc3ccccc3)cc2)NCCCN1O`, the IC50 was 11 nM in assay [1]; 964 nM in assay [2]; above 1000 nM in assay [3]; 36.8 nM in assay [4]; 21.1 nM in assay [5].
